Experimental data as given in ChEMBL document CHEMBL6134779, “Design of Proteolytic-Resistant Antifungal Peptides by Utilizing Minimum d-Amino Acid Ratios” (J Med Chem, 2024).
≈ marks a conversion by molar mass, not a printed value.

Tests used:
Assay type in all cases: functional
[1] = tested on: Candida tropicalis; assay: Antifungal activity against Candida tropicalis CGMCC 2.1975 assessed as inhibition of fungal growth incubated for 48 hrs
[2] = tested on: Candida albicans; assay: Antifungal activity against Candida albicans SP3902 assessed as inhibition of fungal growth incubated for 48 hrs
[3] = tested on: Candida albicans; assay: Resistance development in Candida albicans CGMCC 2.2086 assessed as fold increase in MIC after 20 passages by broth microdilution method relative to control
[4] = tested on: Candida parapsilosis; assay: Antifungal activity against Candida parapsilosis CGMCC 2.3989 assessed as inhibition of fungal growth incubated for 48 hrs; conditions: Lodderomyces parapsilosis
[5] = tested on: Candida albicans; assay: Antifungal activity against Fluconazole-resistant Candida albicans 58288 assessed as inhibition of fungal growth incubated for 48 hrs
[6] = tested on: Candida albicans; assay: Antifungal activity against Candida albicans SP3931 assessed as inhibition of fungal growth incubated for 48 hrs
[7] = tested on: Candida albicans; assay: Antifungal activity against Candida albicans 14936 assessed as inhibition of fungal growth incubated for 48 hrs
[8] = tested on: Candida albicans; assay: Antifungal activity against Candida albicans SP3903 assessed as inhibition of fungal growth incubated for 48 hrs
[9] = tested on: Candida albicans; assay: Antifungal activity against Fluconazole-resistant Candida albicans 56214 assessed as inhibition of fungal growth incubated for 48 hrs
[10] = tested on: Candida albicans; assay: Antifungal activity against Candida albicans CGMCC 2.2086 assessed as inhibition of fungal growth incubated for 48 hrs
[11] = tested on: Candida albicans; assay: Antifungal activity against Candida albicans 17546 assessed as inhibition of fungal growth incubated for 48 hrs
[12] = tested on: Candida albicans; assay: Antifungal activity against Candida albicans 56452 assessed as inhibition of fungal growth incubated for 48 hrs
[13] = tested on: Candida albicans; assay: Antifungal activity against Candida albicans SP3876 assessed as inhibition of fungal growth incubated for 48 hrs
[14] = tested on: Candida albicans; assay: Resistance development in Candida albicans CGMCC 2.2086 assessed as fold increase in MIC after 30 passages by broth microdilution method relative to control

In the case of `OC(Cn1cncn1)(Cn1cncn1)c1ccc(F)cc1F` [FLUCONAZOLE], the MIC95 [1] is reported as 1 µM (≈ 0.306 µg/mL), the MIC95 [2] is reported as 4 µM (≈ 1.23 µg/mL) and the “fold change (FC)” value [3] is reported as 64. The MIC95 [4] was 4 µM (≈ 1.23 µg/mL), the MIC95 [5] was > 64 µM and the MIC95 [6] was 2 µM (≈ 0.613 µg/mL). For the same molecule, the MIC95 [7] was 2 µM (≈ 0.613 µg/mL), the MIC95 [8] was 2 µM (≈ 0.613 µg/mL) and the MIC95 [9] was > 64 µM. The MIC95 [10] was 4 µM (≈ 1.23 µg/mL), the MIC95 [11] was 1 µM (≈ 0.306 µg/mL) and the MIC95 [12] was 2 µM (≈ 0.613 µg/mL). For the same molecule, the MIC95 [13] was 8 µM (≈ 2.45 µg/mL) and the “fold change (FC)” value [14] was 128.
